Source: ChEMBL document CHEMBL1909046, “DrugMatrix in vitro pharmacology data”

Assays:
[1] = biological target: Adenosine receptor A2a (Homo sapiens, UniProt P29274); test: DRUGMATRIX: Adenosine A2A radioligand binding (ligand: […]); assay type: cell membranes, HEK293, Membrane; conditions: hek293; Not Active = under 50% inhibition at 10 µM
[2] = biological target: Glycine receptor (Rattus norvegicus, UniProt P22771+P24524+P07727+P20781); assay type: cell membranes, Wistar, Spinal cord, Membrane; further: in other assays of this panel Not Active means under 50% inhibition at 10 µM
[3] = DRUGMATRIX: Phorbol Ester radioligand binding (ligand: [3H] PDBu); assay type: cell membranes, Mus musculus, ICR, Brain, Membrane; conditions: Not Active = under 50% inhibition at 10 µM
[4] = biological target: Cytochrome P450 2C9 (Homo sapiens, UniProt P11712); conditions: bti-tn-5b1-4; further: in other assays of this panel Not Active means under 50% inhibition at 10 µM
Cytochrome P450 2C9, sequence (P11712 whole entry): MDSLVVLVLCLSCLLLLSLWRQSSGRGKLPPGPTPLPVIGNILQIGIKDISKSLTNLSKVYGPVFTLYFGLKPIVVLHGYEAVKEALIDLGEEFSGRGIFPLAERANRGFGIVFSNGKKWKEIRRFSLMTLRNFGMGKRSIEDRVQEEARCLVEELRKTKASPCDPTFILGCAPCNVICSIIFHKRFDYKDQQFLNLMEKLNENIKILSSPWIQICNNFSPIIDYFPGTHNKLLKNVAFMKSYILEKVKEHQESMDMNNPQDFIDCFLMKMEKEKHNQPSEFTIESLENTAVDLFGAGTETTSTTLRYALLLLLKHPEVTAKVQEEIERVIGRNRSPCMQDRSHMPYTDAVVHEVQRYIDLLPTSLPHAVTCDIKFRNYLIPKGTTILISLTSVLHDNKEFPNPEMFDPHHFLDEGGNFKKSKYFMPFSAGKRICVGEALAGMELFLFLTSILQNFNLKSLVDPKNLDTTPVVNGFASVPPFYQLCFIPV

[5] = biological target: T1, Leukotriene C4 synthase (Cavia porcellus, UniProt A6XA80); assay type: tissue-based, Lung;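 further: enzyme inhibition assay of leukotriene C4 synthase, using LTA4 as the substrate; in other assays of this panel Not Active means under 50% inhibition at 10 µM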
T1 sequence (A6XA80 whole entry): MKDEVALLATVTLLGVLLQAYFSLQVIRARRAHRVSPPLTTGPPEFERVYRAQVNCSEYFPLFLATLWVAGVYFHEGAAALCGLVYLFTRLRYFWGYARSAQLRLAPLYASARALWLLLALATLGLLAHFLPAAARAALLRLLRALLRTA

[6] = biological target: T2, B2 bradykinin receptor (Homo sapiens, UniProt P30411); assay type: cell membranes, Membrane; conditions: chem-1; further: in other assays of this panel Not Active means under 50% inhibition at 10 µM
T2 sequence (P30411 whole entry): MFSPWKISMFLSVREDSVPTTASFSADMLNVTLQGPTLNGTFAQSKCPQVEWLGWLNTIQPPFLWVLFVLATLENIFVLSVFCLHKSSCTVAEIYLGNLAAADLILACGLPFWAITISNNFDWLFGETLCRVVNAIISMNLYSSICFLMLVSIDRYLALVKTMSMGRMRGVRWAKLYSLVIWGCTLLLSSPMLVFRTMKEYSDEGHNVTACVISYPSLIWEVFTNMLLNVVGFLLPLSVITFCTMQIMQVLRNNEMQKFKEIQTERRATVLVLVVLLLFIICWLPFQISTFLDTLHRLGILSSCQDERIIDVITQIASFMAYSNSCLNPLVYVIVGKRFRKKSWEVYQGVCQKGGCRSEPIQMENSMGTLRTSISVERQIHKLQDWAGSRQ

[7] = biological target: T3, 5-hydroxytryptamine receptor 1A (Rattus norvegicus, UniProt P19327); assay type: cell membranes, CHO-K1, Membrane; further: in other assays of this panel Not Active means under 50% inhibition at 10 µM
T3 sequence (P19327 whole entry): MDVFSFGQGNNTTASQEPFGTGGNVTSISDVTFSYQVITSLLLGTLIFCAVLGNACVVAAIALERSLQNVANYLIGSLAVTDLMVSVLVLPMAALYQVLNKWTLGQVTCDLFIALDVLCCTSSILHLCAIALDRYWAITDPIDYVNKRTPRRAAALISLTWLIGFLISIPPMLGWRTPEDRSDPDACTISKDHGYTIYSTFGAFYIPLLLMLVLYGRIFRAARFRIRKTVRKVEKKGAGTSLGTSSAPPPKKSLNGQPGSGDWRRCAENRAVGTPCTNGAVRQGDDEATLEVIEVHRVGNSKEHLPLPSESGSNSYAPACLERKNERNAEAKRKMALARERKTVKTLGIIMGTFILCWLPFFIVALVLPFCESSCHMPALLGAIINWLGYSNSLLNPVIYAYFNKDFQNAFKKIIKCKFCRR

Adenosine receptor A2a, sequence (P29274 whole entry): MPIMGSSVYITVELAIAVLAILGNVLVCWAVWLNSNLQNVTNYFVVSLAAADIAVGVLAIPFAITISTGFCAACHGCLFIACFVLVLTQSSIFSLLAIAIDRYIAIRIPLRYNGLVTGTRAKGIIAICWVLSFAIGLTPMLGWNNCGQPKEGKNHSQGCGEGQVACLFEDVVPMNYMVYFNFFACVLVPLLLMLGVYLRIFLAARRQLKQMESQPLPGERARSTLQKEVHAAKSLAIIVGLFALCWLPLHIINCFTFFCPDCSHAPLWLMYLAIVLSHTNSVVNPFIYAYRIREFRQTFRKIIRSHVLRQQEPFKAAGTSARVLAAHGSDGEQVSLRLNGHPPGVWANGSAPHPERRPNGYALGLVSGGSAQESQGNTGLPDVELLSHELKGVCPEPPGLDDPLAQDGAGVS

Row | Compound | IC50 [1] | IC50 [2] | IC50 [3] | Ki [3] | IC50 [4] | Ki [4] | IC50 [5] | IC50 [6] | IC50 ([7]; cho-k1) | IC50 ([7]; read-out: IC50) [nM] | Ki ([7]; read-out: Ki) [nM]
1 | CC(=O)Oc1ccccc1C(=O)O [ASPIRIN] | Not Active | Not Active | Not Active | Not Active | Not Active | Not Active | Not Active | Not Active | Not Active |  | 
2 | CC(C)c1c(C(=O)Nc2ccccc2)c(-c2ccccc2)c(-c2ccc(F)cc2)n1CC[C@@H](O)C[C@@H](O)CC(=O)O [ATORVASTATIN] | Not Active | Not Active | Not Active | Not Active |  |  | Not Active | Not Active | Not Active |  | 
3 | Cn1c(=O)c2c(ncn2C)n(C)c1=O [CAFFEINE] |  | Not Active | Not Active | Not Active | Not Active | Not Active | Not Active | Not Active | Not Active |  | 
4 | CC(C)C[C@H]1C(=O)N2CCC[C@H]2[C@]2(O)O[C@](NC(=O)[C@@H]3C=C4c5cccc6[nH]cc(c56)C[C@H]4N(C)C3)(C(C)C)C(=O)N12 [ERGOCRYPTINE] | Not Active | Not Active | Not Active | Not Active |  |  | Not Active | Not Active |  | 2.63 | 1.5
5 | CC(C)(C(=O)O)c1ccc(C(O)CCCN2CCC(C(O)(c3ccccc3)c3ccccc3)CC2)cc1 (stereo not given) [FEXOFENADINE] | Not Active | Not Active | Not Active | Not Active |  |  | Not Active | Not Active | Not Active |  | 
6 | CC(=O)OCC(=O)[C@@]12OC(C)(C)O[C@@H]1C[C@H]1[C@@H]3C[C@H](F)C4=CC(=O)C=C[C@]4(C)[C@@]3(F)[C@@H](O)C[C@@]12C [FLUOCINONIDE] | Not Active | Not Active | Not Active | Not Active |  |  | Not Active | Not Active | Not Active |  | 
7 | CCC1=C(C)CN(C(=O)NCCc2ccc(S(=O)(=O)NC(=O)N[C@H]3CC[C@H](C)CC3)cc2)C1=O [GLIMEPIRIDE] | Not Active | Not Active | Not Active | Not Active |  |  | Not Active | Not Active | Not Active |  | 
8 | N[C@@H](Cn1ccc(=O)c(O)c1)C(=O)O [L-MIMOSINE] | Not Active | Not Active | Not Active | Not Active |  |  | Not Active | Not Active | Not Active |  | 
9 | CC(C)(C)NCC(O)COc1cccc2c1CC(O)C(O)C2 (stereo not given) [NADOLOL] | Not Active | Not Active | Not Active | Not Active |  |  | Not Active | Not Active | Not Active |  | 
10 | C[C@@H]1C/C=C/C=C/C=C/C=C/[C@H](O[C@@H]2O[C@H](C)[C@@H](O)[C@H](N)[C@@H]2O)C[C@@H]2O[C@](O)(C[C@@H](O)C[C@H]3O[C@@H]3/C=C/C(=O)O1)C[C@H](O)[C@H]2C(=O)O [NATAMYCIN] | Not Active | Not Active | Not Active | Not Active |  |  | Not Active | Not Active | Not Active |  | 
11 | COc1ccc2c(c1OC)C(=O)O[C@@H]2[C@H]1c2c(cc3c(c2OC)OCO3)CCN1C [NOSCAPINE] | Not Active | Not Active | Not Active | Not Active |  |  | Not Active | Not Active | Not Active |  | 
12 | N=C(N)c1ccc(OCCCCCOc2ccc(C(=N)N)cc2)cc1 [PENTAMIDINE] | Not Active | Not Active | Not Active | Not Active |  |  | Not Active | Not Active | Not Active |  | 
13 | NNCCc1ccccc1 [PHENELZINE] | Not Active | Not Active | Not Active | Not Active |  |  | Not Active | Not Active | Not Active |  | 
